Measurements reported in patent US20090281099A1, “SUBSTITUTED PYRAZINONE DERIVATIVES FOR USE AS A MEDICINE” (priority 2006, published 2009).
Read-outs that look alike come from different tables or passages of the source.

Assays:
hα2A receptor = target: T1, hα2A receptor (Homo sapiens, UniProt P08913); assay: Radioligand binding experiment for hα2A receptor ([3H]-raulwolscine, CHO cell membranes); settings: read-out: h-α2A pIC50 (converted)
T1 construct: expressed in transfected cells
T1 sequence (P08913 1-465): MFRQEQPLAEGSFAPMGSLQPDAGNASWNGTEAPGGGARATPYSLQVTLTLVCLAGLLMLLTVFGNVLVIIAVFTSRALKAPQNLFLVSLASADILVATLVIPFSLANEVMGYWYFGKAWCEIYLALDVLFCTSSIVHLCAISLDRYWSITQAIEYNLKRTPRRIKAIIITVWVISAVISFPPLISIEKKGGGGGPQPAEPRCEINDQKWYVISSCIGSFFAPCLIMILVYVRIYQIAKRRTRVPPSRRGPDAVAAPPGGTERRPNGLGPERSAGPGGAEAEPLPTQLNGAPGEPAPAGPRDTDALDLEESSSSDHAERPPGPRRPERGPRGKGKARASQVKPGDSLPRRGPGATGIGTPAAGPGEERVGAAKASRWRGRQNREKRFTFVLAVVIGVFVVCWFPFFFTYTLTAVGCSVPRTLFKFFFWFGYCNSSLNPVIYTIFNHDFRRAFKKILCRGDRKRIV

hα2C receptor = target: T2, hα2C receptor (Homo sapiens, UniProt P18825); assay: Radioligand binding experiment for α2C-adrenoceptor ([3H]-raulwolscine, CHO cell membranes); settings: read-out: h-α2C pIC50 (converted)
T2 construct: expressed in transfected cells
T2 sequence (P18825 1-462): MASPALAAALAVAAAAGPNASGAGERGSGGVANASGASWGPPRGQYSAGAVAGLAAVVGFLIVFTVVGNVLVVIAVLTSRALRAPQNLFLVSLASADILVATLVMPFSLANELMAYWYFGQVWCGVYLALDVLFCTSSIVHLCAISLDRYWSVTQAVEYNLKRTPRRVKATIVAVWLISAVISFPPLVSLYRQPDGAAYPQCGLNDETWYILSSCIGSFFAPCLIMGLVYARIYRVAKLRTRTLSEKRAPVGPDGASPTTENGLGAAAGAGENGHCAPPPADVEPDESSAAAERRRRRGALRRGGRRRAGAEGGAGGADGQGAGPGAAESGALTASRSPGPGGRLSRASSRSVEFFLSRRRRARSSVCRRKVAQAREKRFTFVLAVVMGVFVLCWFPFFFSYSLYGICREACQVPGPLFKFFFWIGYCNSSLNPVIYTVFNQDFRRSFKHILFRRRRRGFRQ

5HT-Transporter = target: T3, 5HT-Transporter (Homo sapiens, UniProt P31645); assay: Binding experiment for the 5HT-transporter ([3H]paroxetine, human platelet membranes); settings: [3H]paroxetine 0.5 nM, read-out: h-5HTT pIC50 (converted)
T3 construct: Human platelet membranes (Oceanix Biosciences Corporation, Hanover, Md., USA) were thawed; tissue Oceanix Biosciences Corporation; host or cells: human platelet membranes

[1] = [3H]raulwolscine 1 nM, membranes of CHO cells transfected with human α2A receptor
[2] = [3H]raulwolscine 1 nM, membranes of CHO cells transfected with human α2C receptor

T3 sequence (P31645 whole entry): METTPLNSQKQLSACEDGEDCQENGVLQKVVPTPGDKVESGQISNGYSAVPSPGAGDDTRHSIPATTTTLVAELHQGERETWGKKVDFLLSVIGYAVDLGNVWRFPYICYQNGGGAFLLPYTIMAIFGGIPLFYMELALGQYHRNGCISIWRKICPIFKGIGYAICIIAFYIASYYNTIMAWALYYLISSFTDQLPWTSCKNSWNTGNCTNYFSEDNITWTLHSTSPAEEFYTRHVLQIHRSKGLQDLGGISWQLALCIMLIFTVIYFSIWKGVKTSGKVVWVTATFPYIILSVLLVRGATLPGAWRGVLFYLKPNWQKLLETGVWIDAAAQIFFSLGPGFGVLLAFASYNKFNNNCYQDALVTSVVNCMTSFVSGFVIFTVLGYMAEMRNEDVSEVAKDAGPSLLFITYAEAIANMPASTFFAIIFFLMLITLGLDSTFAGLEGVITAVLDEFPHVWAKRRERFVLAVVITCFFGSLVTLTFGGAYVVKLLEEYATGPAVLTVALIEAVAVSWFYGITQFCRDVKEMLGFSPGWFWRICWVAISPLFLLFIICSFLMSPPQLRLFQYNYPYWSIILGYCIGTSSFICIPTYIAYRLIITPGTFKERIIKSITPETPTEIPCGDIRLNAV

Row | IC50 (hα2A receptor; [1]) | IC50 (hα2C receptor; [2]) | IC50 (5HT-Transporter) | SMILES | IC50 (hα2A receptor) | IC50 (hα2C receptor)
1 | 0.251 µM | 0.316 µM | > 10 µM | Cc1nc(Cn2ccnc(N3CCN(CCOc4ccc(F)cc4)CC3)c2=O)cs1 [Compound 12-3] |  | 
2 | 0.251 µM | 0.0251 µM | 1 µM | O=c1c(NC2CCN(CCOc3ccccc3)CC2)nccn1CC1CCCCC1 [Compound 5-3] |  | 
3 | 0.631 µM | 0.0501 µM | > 10 µM | COCCn1ccnc(NC2CCN(CCOc3ccccc3)CC2)c1=O [Compound 3-1] |  | 
4 | 0.501 µM | 0.251 µM | 3.98 µM | O=c1c(N2CCN(CCOc3ccc(F)cc3)CC2)nccn1CCOCc1ccccc1 [Compound 9-3] |  | 
5 | 0.251 µM | 0.0158 µM | 3.16 µM | CCOC(=O)CCCCn1ccnc(NC2CCN(CCOc3ccccc3)CC2)c1=O [Compound 3-3] |  | 
6 | 0.2 µM | 0.00794 µM | 2.51 µM | O=c1c(NC2CCN(CCOc3ccccc3)CC2)nccn1Cc1ccc2ccccc2n1 [Compound 6-3] |  | 
7 | 0.1 µM | 0.0398 µM | 0.631 µM | O=C1c2ccccc2C(=O)N1CCCn1ccnc(N2CCN(CCOc3ccc(F)cc3)CC2)c1=O [Compound 8-2] |  | 
8 | 0.316 µM | 0.251 µM | 1 µM | O=c1c(N2CCN(CCOc3ccc(F)cc3)CC2)nccn1Cc1ccc(-c2ccccc2)cc1 [Compound 11-6] |  | 
9 | 0.316 µM | 0.2 µM | > 10 µM | CC(C)(C)C(=O)Cn1ccnc(N2CCN(CCOc3ccc(F)cc3)CC2)c1=O [Compound 13-4] |  | 
10 | 0.398 µM | 0.0398 µM | > 10 µM | O=c1[nH]ccnc1NC1CCN(CCOc2ccccc2)CC1 [Compound 5-1] |  | 
11 | 0.1 µM | 0.2 µM | > 10 µM | O=c1c(N2CCN(CCOc3ccc(F)cc3)CC2)nccn1Cc1ccccc1 [Compound 11-1] |  | 
12 | 0.126 µM | 0.0316 µM | > 10 µM | CC(=O)Cn1ccnc(NC2CCN(CCOc3ccccc3)CC2)c1=O [Compound 5-4] |  | 
13 | 0.501 µM | 0.0398 µM | > 10 µM | O=c1c(NC2CCN(CCOc3ccccc3)CC2)nccn1CC1CCCCO1 (stereo not drawn) [Compound 6-1] |  | 
14 | 0.158 µM | 0.00794 µM | > 10 µM | CC(C)(C)C(=O)Cn1ccnc(NC2CCN(CCOc3ccccc3)CC2)c1=O [Compound 5-5] |  | 

The remaining lines, values behind:

Row | SMILES | IC50 (hα2A receptor; [1]) | IC50 (hα2C receptor; [2]) | IC50 (5HT-Transporter) | IC50 (hα2A receptor) | IC50 (hα2C receptor)
15 | CN(C)CCN(Cc1ccccc1)C(=O)Cn1ccnc(NC2CCN(CCOc3ccccc3)CC2)c1=O [Compound 1-21] | 0.02 µM | 0.000794 µM | 1.58 µM |  | 
16 | CN(CCc1ccccc1)C(=O)Cn1ccnc(NC2CCN(CCOc3ccccc3)CC2)c1=O [Compound 1-16] | 0.2 µM | 0.00794 µM | > 10 µM |  | 
17 | CN(C(=O)Cn1ccnc(NC2CCN(CCOc3ccccc3)CC2)c1=O)c1ccccc1 [Compound 1-9] | 0.1 µM | 0.00316 µM | 3.98 µM |  | 
18 | O=C(Cn1ccnc(NC2CCN(CCOc3ccccc3)CC2)c1=O)NCc1ccccc1 [Compound 1-11] | 0.251 µM | 0.00631 µM | 7.94 µM |  | 
19 | O=C(Cn1ccnc(NC2CCN(CCOc3ccccc3)CC2)c1=O)Nc1ccccc1 [Compound 1-8] | 0.158 µM | 0.00501 µM | 6.31 µM |  | 
20 | O=c1c(NC2CCN(CCOc3ccccc3)CC2)nccn1-c1cccc(N2CCC(N3CCCC3)CC2)c1 [Compound 2-9] | 0.00794 µM | 0.001 µM | 6.31 µM |  | 
21 | O=C(Cn1ccnc(NC2CCN(CCOc3ccccc3)CC2)c1=O)N(CCN1CCCC1)Cc1ccc(F)cc1 [Compound 1-24] | 0.0158 µM | 0.000316 µM | 5.01 µM |  | 
22 | CN(C)CCn1ccnc(NC2CCN(CCOc3ccccc3)CC2)c1=O [Compound 1-3] | 0.158 µM | 0.02 µM | > 10 µM |  | 
23 | O=C1c2ccccc2C(=O)N1CCCn1ccnc(NC2CCN(CCOc3ccccc3)CC2)c1=O [Compound 2-15] | 0.2 µM | 0.00126 µM | 1 µM |  | 
24 | O=c1c(NC2CCN(CCOc3ccccc3)CC2)nccn1-c1ccc(N2CCCCC2)cc1 [Compound 2-4] | 0.2 µM | 0.02 µM | 2.51 µM |  | 
25 | NCc1ccc(Cn2ccnc(NC3CCN(CCOc4ccccc4)CC3)c2=O)cc1 [Compound 1-2] | 0.0158 µM | 0.00158 µM | 7.94 µM |  | 
26 | O=c1c(NC2CCN(CCOc3ccccc3)CC2)nccn1CCCn1c(=O)[nH]c2ccccc21 [Compound 2-17] | 0.126 µM | 0.00126 µM | 3.16 µM |  | 
27 | O=C(Cn1ccnc(NC2CCN(CCOc3ccccc3)CC2)c1=O)NCC(c1ccccc1)c1ccccc1 [Compound 1-19] | 0.158 µM | 0.00501 µM | 3.16 µM |  | 
28 | O=c1c(NC2CCN(CCOc3ccccc3)CC2)nccn1CCN1CCOCC1 [Compound 2-13] | 0.631 µM | 0.02 µM | > 10 µM |  | 
29 | C#CCN(C)C(=O)Cn1ccnc(NC2CCN(CCOc3ccccc3)CC2)c1=O [Compound 1-7] | 0.251 µM | 0.0126 µM | > 10 µM |  | 
30 | O=C(Cn1ccnc(NC2CCN(CCOc3ccccc3)CC2)c1=O)N1CCN(Cc2ccccc2)CC1 [Compound 2-12] |  |  | 6.31 µM | 0.2 µM | 0.00251 µM
